One experiment relates to Guinea Pigs. The experiment is described as follows: Effect on Big Endothelin-1-induced Increase in Airway Resistance in Guinea Pigs. The format is in vivo, guinea pig. On the procedure:
Guinea pigs were first anesthetized with urethane, and then the necks were subjected to median incision, a tracheal cannula was inserted in the trachea. Spontaneous respiration was interrupted with succinylcholine (5 mg/kg, hypodermic injection), and then an artificial respirator was used to effect artificial ventilation (10 ml/air/kg, […]). The airway pressure was then measured and recorded using the Konzett and Rossler method (Arch. Exp. Path. Pharmacol., Vol. 135, p.71-74, 1940), via an airway contraction transducer from the tracheal cannula.
Examined was the influence of a representative compound of the present invention (Compound of Example 1, Isomer B) to the increase in airway pressure produced by the administration of 5 nmol/kg of big endothelin-1 through a polyethylene tube inserted into the common carotid vein. The test compound was injected into the common carotid vein 5 minutes before the administration of big endothelin-1. Also, upon completion of the experiment, the change in airway pressure obtained by blockage of the trachea was defined as a 100% increase in airway pressure, and the measured increases in airway pressure were expressed as percentages of this value. […]

For experiment [1], the system named is Isolated Guinea Pig Bronchial Smooth Muscles. In words: Effect on Big Endothelin-1-induced Contraction in Isolated Guinea Pig Bronchial Smooth Muscles. The procedure:
Bronchia (outer diameter approximately 2 mm) were isolated from the lung of a guinea pig, and the connective tissue, lung parenchymal tissue, etc. were peeled off, and then a ring preparation (4 mm in length) was prepared. These samples were placed in a 5 ml Magnus' tube filled with Krebs-Henseleit solution saturated with a gas mixture of 95% O2 and 5% CO2, and a change in tension was isometrically measured and recorded.
The influence of a representative compound of the present invention (Compound of Example 2, Isomer B) to the increase in the tension produced by 100 nM of big endothelin-1 was examined. The test compound was added into the Magnus' tube 40 minutes prior to the addition of big endothelin-1.
A 100% increase in the tension was defined as that in the case of no addition of the test compound (control) at 2 hours after addition of big endothelin-1, and the comparison with the increase in the tension in the cases where the test compound was added is shown in Table 3.

Experiment [2] has as its target T1, endothelin-converting enzyme (ECE) (Bos taurus, UniProt P42891).
T1 construct: ECE was prepared according to the method already published by Yano, et.al; endogenous in cells
T1 sequence (P42891 1-754): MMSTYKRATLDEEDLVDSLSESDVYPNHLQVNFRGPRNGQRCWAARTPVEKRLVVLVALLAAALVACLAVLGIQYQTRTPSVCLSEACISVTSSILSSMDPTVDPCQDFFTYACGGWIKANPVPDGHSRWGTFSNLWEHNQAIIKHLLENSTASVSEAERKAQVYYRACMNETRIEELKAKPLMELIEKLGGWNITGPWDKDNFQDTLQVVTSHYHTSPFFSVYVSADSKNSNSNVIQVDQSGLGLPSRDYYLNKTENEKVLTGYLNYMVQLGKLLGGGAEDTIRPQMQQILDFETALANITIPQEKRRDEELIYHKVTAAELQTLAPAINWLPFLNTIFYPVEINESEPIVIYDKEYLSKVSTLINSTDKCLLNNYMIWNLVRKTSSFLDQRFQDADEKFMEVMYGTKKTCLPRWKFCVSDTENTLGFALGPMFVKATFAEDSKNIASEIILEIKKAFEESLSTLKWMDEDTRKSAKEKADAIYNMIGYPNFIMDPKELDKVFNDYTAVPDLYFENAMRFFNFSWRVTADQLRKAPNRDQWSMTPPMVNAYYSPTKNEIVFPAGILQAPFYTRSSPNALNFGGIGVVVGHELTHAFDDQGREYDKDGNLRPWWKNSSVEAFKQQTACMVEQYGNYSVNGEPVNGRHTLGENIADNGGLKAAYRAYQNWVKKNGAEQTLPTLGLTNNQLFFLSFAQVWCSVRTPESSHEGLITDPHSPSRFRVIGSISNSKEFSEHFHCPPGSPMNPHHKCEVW
In words: ECE Activity Inhibition Test (endothelin-1 produced from big endothelin-1, RIA). Format: biochemical. Conditions: 10 μM test compound; 1 μM big endothelin-1; pH 7.2, 37° C., 90 minutes. The procedure: ECE was prepared according to the method already published by Yano, et.al. (Biochem. Biophys. Res. Commun., Vol. 171, p.1192-1198, 1990), and 11 μg of ECE and 1 μM of big endothelin-1 were reacted with a 0.5M Tris-HCl buffer solution (pH 7.2) at 37° C. for 90 minutes in the presence or absence of a test compound, after which the amount of endothelin-1 produced thereby was determined by the RIA method, and the ECE inhibition activity of the test compound was evaluated.

In experiment [3] the test system is Isolated Pig Coronary Arteries. The experiment is described as follows: Effect on endothelin-1-induced increase in tension in isolated pig coronary arteries. As to conditions: 0.3 nM endothelin-1. On the procedure:
Pig coronary arteries were isolated, and a spiral preparation having a width of 1 mm and a length of 10 mm was prepared therefrom. These samples were then placed in a 5 ml Magnus' tube filled with Krebs-Henseleit solution saturated with a gas mixture of 95% O2 and 5% CO2, and a change in the tension was isometrically measured and recorded. […]

In experiment [4] the test system is Isolated Pig Coronary Arteries. In words: Effect on Big Endothelin-1-induced Contraction in Isolated Pig Coronary Arteries. The procedure: Pig coronary arteries were isolated, and a spiral preparation having a width of 1 mm and a length of 10 mm was prepared therefrom. These samples were then placed in a 5 ml Magnus' tube filled with Krebs-Henseleit solution saturated with a gas mixture of 95% O2 and 5% CO2, and a change in the tension was isometrically measured and recorded.
The influence of a representative compound of the present invention (Compound of Example 11) to the increase in the tension produced by 30 nM of big endothelin-1 was examined. The test compound was added to the Magnus' tube 40 minutes prior to the addition of big endothelin-1.
A 100% increase in the tension was defined as that in the case of no addition of the test compound (control) at 2 hours after addition of big endothelin-1, and the comparison with the increase in the tension in the cases where the test compound was added is shown in Table 2.

We go through six molecules from patent US5380921A, “Aminophosponic acid derivative” (Banyu Pharmaceutical Co., Ltd., priority 1993, dated 1995).

Entries after “also recorded” stand apart in the source; their conditions may differ.

What is called IC50 is the concentration that gives 50% inhibition. A word on the inhibition: it is the share of the control response that was lost under treatment. The low end stands for little suppression, the high end for strong suppression.

In the case of `CC(C)C[C@H](NC(CCc1ccccc1)P(=O)(O)O)C(=O)N[C@@H](Cc1c[nH]c2ccccc12)C(=O)O` (single isomer, unassigned) [Example 1 (Isomer B), N-[N-(3-phenyl-1-phosphonopropyl)-L-leucyl]-L-tryptophan], the “increase in airway pressure induced by big endothelin-1” value in the experiment on Guinea Pigs (0.3, 1.0 and 3.0 mg/kg into common carotid vein, 5 minutes before 5 nmol/kg big endothelin-1, FIG. 1) was “remarkably inhibits the increase in the airway pressure; also recorded: suppressed the increase in airway pressure induced by big endothelin-1, in a dose-dependent manner”. Also, the “change in airway pressure on administration of the test compound alone” value with Guinea Pigs (test compound alone) is “no change in the airway pressure”.

On to `CC(C)C[C@H](NC(CCc1cccc2ccccc12)P(=O)(O)O)C(=O)N[C@@H](Cc1c[nH]c2ccccc12)C(=O)O` (single isomer, unassigned) [Example 2 (Isomer B), N-{N-[3-(1-naphthyl)-1-phosphonopropyl]-L-leucyl}-L-tryptophan], for which the “inhibition of big endothelin-1-induced contraction (in words)” value in experiment [1] (100 nM big endothelin-1, 1-100 μm (so in the source)) is “dose-dependent inhibition”. For the same molecule, in experiment [1] (Cavia porcellus, 100 nM big endothelin-1, guinea pig bronchia, calculated, read-out: IC50 value, inhibition of big endothelin-1-induced contraction), the IC50 was 16 µM. For the same molecule, in experiment [1] (Cavia porcellus, 1 μm (so in the source), 100 nM big endothelin-1, at 2 hours, read-out: Contraction (% of control)), the activity at 1 µM came to 105%. Also, the activity at 10 µM in experiment [1] (Cavia porcellus, 10 μm (so in the source), 100 nM big endothelin-1, at 2 hours, read-out: Contraction (% of control)) amounted to 54.9%. Also, in experiment [1] (Cavia porcellus, 100 μm (so in the source), 100 nM big endothelin-1, at 2 hours, read-out: Contraction (% of control)), the activity at 100 µM was found to be 32.9%. For the same molecule, in experiment [1] (compound alone), the “effect of the test compound itself on the tension of bronchial samples” value is “no effect”.

`O=C(O)[C@H](Cc1c[nH]c2ccccc12)NC(=O)[C@H](Cc1ccccc1)NC(CCc1ccccc1)P(=O)(O)O` (single isomer, unassigned) [Example 10 (Isomer B), N-[N-(3-phenyl-1-phosphonopropyl)-L-phenylalanil]-L-tryptophan] registered an inhibition at 10 µM in experiment [2] of 76%.

As to `CC(C)C[C@H](NC(CCc1c[nH]c2ccccc12)P(=O)(O)O)C(=O)N[C@@H](Cc1c[nH]c2ccccc12)C(=O)O` (stereo partly drawn) [Example 6, N-[N-[3-(3-indolyl)-1-phosphonopropyl]-L-leucyl]-L-tryptophan], 10 µM produced 80% inhibition in experiment [2].

In turn, `CC(C)C[C@H](NC(CCc1ccccc1)P(=O)(O)O)C(=O)N[C@@H](Cc1c[nH]c2ccccc12)C(=O)O` (stereo partly drawn) [Example 11, N-[N-(3-phenyl-1-phosphonopropyl)-L-leucyl]-L-tryptophan] showed an inhibition at 10 µM in experiment [2] of 84%. Also, in experiment [3], the “effect on the increase in the tension caused by endothelin-1” value was “no effect”. In addition, the “inhibition of big endothelin-1-induced contraction (in words)” value in experiment [4] (30 nM big endothelin-1, 10-100 μM) is “dose-dependent inhibition”. In addition, in experiment [4] (Sus scrofa, 30 nM big endothelin-1, pig coronary arteries, calculated, read-out: IC50 value, inhibition of big endothelin-1-induced contraction), the IC50 was 16 µM. The activity at 10 µM in experiment [4] (Sus scrofa, 10 μM, 30 nM big endothelin-1, at 2 hours, read-out: Contraction (% of control)) came to 59.9%. In addition, the activity at 30 µM in experiment [4] (Sus scrofa, 30 μM, 30 nM big endothelin-1, at 2 hours, read-out: Contraction (% of control)) came to 35.3%. The activity at 100 µM in experiment [4] (Sus scrofa, 100 μM, 30 nM big endothelin-1, at 2 hours, read-out: Contraction (% of control)) was 2.7%. Also, the “effect of the compound itself on the tension of blood vessel samples” value in experiment [4] (compound alone) is given as “no effect”.

`CC(C)C[C@H](NP(=O)(O)O[C@@H]1O[C@@H](C)[C@H](O)[C@@H](O)[C@H]1O)C(=O)N[C@@H](Cc1c[nH]c2ccccc12)C(=O)O` [Phosphoramidon, reference compound] had an inhibition at 10 µM in experiment [2] of 64%.
